Values quoted from earlier work, collected in US12454515B2, “2-aminoindane compounds for mental disorders or enhancement” (Tactogen Inc, priority 2020, dated 2025).

Test system: neuritogenesis
Settings: literature value

SMILES: CNC(C)Cc1ccc2c(c1)OCO2 (centres unmarked) [MDMA]
- EC50 (Ly et al. Cell reports 23 (2018) Figure S3, read-out: EC50 for promoting neuritogenesis): 7.41 nM
- Emax for promoting neuritogenesis (relative to ketamine, Ly et al. 2018): approximately twice that of ketamine
